The assay has as its system CD2F1 mice, L1210 leukemia ip, survival T/C. The experiment in a line: NCI In Vivo Anticancer Drug Screen. Data for tumor model L1210 Leukemia (intraperitoneal) in CD2F1 (CDF1) mice. The conditions noted are these: higher = longer survival. The procedure, abridged: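 Vehicle-treated tumor-bearing mice served as controls (C) for compound-treated mice (T). Reported figure is T divided by C.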

[1] abbreviates: endpoint: mean survival time, dose: 100.0 mg/kg/injection, schedule: Q01DX009 (ip), vehicle: saline with Tween-80.
Where [2] appears, read: endpoint: mean survival time, dose: 200.0 mg/kg/injection, schedule: Q01DX009 (ip), vehicle: saline with Tween-80.
Setting [3] is: endpoint: mean survival time, dose: 400.0 mg/kg/injection, schedule: Q01DX009 (ip), vehicle: saline with Tween-80.
Where [4] appears, read: endpoint: mean survival time, dose: 25.0 mg/kg/injection, schedule: Q01DX009 (ip), vehicle: saline with Tween-80.
The mark [5] stands for this setting: endpoint: mean survival time, dose: 50.0 mg/kg/injection, schedule: Q01DX009 (ip), vehicle: saline with Tween-80.
[6] abbreviates: endpoint: mean survival time, dose: 25.0 mg/kg/injection, schedule: Q04DX002 (ip), vehicle: saline with Tween-80.
Where [7] appears, read: endpoint: mean survival time, dose: 100.0 mg/kg/injection, schedule: Q04DX002 (ip), vehicle: saline with Tween-80.
Where [8] appears, read: endpoint: mean survival time, dose: 400.0 mg/kg/injection, schedule: Q04DX002 (ip), vehicle: saline with Tween-80.
Setting [9] is: endpoint: mean survival time, dose: 100.0 mg/kg/injection, schedule: Q01DX001 (ip), vehicle: saline with Tween-80.
Setting [10] is: endpoint: mean survival time, dose: 200.0 mg/kg/injection, schedule: Q01DX001 (ip), vehicle: saline with Tween-80.

Structures are written as SMILES. Values joined by “and” are separate entries in the source; they are usually repeats but may differ in a detail not shown here. Equal entries are not always repeated. Inconclusive results and toxic doses are left out.

On to `C#CCOCC(O)C[As](=O)(O)c1cccc(Cl)c1` (centres undefined), for which, where the note is “endpoint: mean survival time, dose: 6.25 mg/kg/injection, schedule: Q04DX003 (ip), vehicle: saline”, the T/C is 104 % of control.
For `NC(=O)/C=C/C1=NCCC1`, the T/C (endpoint: mean survival time, dose: 7.5 mg/kg/injection, schedule: Q04DX003 (ip), vehicle: saline with Tween-80) is 97 % of control; the T/C (endpoint: mean survival time, dose: 15.0 mg/kg/injection, schedule: Q04DX003 (ip), vehicle: saline with Tween-80) is 97 % of control; the T/C (endpoint: mean survival time, dose: 30.0 mg/kg/injection, schedule: Q04DX003 (ip), vehicle: saline with Tween-80) was 102 % of control; the T/C under setting [1] is 100 % of control; the T/C under setting [2] is 103 % of control; the T/C under setting [3] is 103 % of control.
For the compound `CCOc1ccc(-c2nnc(Nc3ccc(S(=O)(=O)N4CCCCC4)cc3)s2)cc1`, the T/C is 95 % of control under setting [4], 90 % of control under setting [5] and 86 % of control under setting [1].
Regarding `CCC(/C=C1\Oc2ccc(-c3ccccc3)cc2N1CC)=C\c1oc2ccc(-c3ccccc3)cc2[n+]1CC`, where the note is “endpoint: mean survival time, dose: 4.4 mg/kg/injection, schedule: Q01DX009 (ip), vehicle: other”, the T/C is 117 % of control.
As for `CN=C(N)c1ccc(N=C(N)c2ccc(C(N)=Nc3ccc(C(N)=NC)cc3)cc2)cc1`, the T/C is 117 % of control (endpoint: median survival time, dose: 3.75 mg/kg/injection, schedule: Q08HX018 (ip), vehicle: water); 95 % of control (endpoint: median survival time, dose: 10.0 mg/kg/injection, schedule: Q01DX001 (iv), vehicle: saline); 97 % of control (endpoint: median survival time, dose: 10.0 micrograms per hour, schedule: Q#X X001 (iv), vehicle: saline).
In the case of `Cc1cccc(OCC2=NCCN2)c1C`, the T/C was 102 % of control (endpoint: mean survival time, dose: 6.25 mg/kg/injection, schedule: Q04DX002 (ip), vehicle: saline with Tween-80); 109 % of control (endpoint: mean survival time, dose: 12.5 mg/kg/injection, schedule: Q04DX002 (ip), vehicle: saline with Tween-80); 97 % of control under setting [6].
In the case of `COCCOCCOCCOCCOCCOCCOCCOCCOCCOCCOC(=O)N(CC[PH+](c1ccccc1)c1ccccc1)CC[PH+](c1ccccc1)c1ccccc1.[Cl][Pt][Cl]`, the T/C is, setting by setting: (endpoint: median survival time, dose: 3.13 mg/kg/injection, schedule: Q04DX003 (ip), vehicle: distilled water + Tween-80) 101 % of control; (endpoint: median survival time, dose: 6.25 mg/kg/injection, schedule: Q04DX003 (ip), vehicle: distilled water + Tween-80) 100 % of control; (endpoint: median survival time, dose: 12.5 mg/kg/injection, schedule: Q04DX003 (ip), vehicle: distilled water + Tween-80) 104 % of control; (endpoint: median survival time, dose: 25.0 mg/kg/injection, schedule: Q04DX003 (ip), vehicle: distilled water + Tween-80) 96 % of control; (endpoint: median survival time, dose: 50.0 mg/kg/injection, schedule: Q04DX003 (ip), vehicle: distilled water + Tween-80) 115 % of control; (endpoint: median survival time, dose: 100.0 mg/kg/injection, schedule: Q04DX003 (ip), vehicle: distilled water + Tween-80) 100 % of control. Moreover, the T/C (endpoint: median survival time, dose: 200.0 mg/kg/injection, schedule: Q04DX003 (ip), vehicle: distilled water + Tween-80) was 98 % of control.
Take `CC(C)OC(=O)N1C(=O)C2C3CCC(O3)C2C1=O` (centres undefined): the T/C by setting is: under setting [4], 105 % of control; under setting [6], 101 % of control; under setting [5], 97 % of control; (endpoint: mean survival time, dose: 50.0 mg/kg/injection, schedule: Q04DX002 (ip), vehicle: saline with Tween-80) 101 % of control; under setting [1], 97 % of control; under setting [7], 106 % of control. For the same compound, under setting [8], the T/C was 97 % of control.
As to `COc1ccc(NC(=O)Oc2cc(C(C)C)ccc2C)cc1`, the T/C reads like this: under setting [7], 98 % of control; (endpoint: mean survival time, dose: 200.0 mg/kg/injection, schedule: Q04DX002 (ip), vehicle: saline with Tween-80) 98 % of control; under setting [8], 94 % of control.
As to `COc1ccc(N=C=S)cc1N=C=S`, the T/C was 98 % of control (endpoint: mean survival time, dose: 6.25 mg/kg/injection, schedule: Q01DX001 (ip), vehicle: saline with Tween-80); 97 % of control (endpoint: mean survival time, dose: 12.5 mg/kg/injection, schedule: Q01DX001 (ip), vehicle: saline with Tween-80); 101 % of control (endpoint: mean survival time, dose: 25.0 mg/kg/injection, schedule: Q01DX001 (ip), vehicle: saline with Tween-80).
In the case of `COC(=O)C(CCCCN=Cc1ccccc1O)N=Cc1ccccc1O.[Ni]` (centres undefined), the T/C is, setting by setting: (endpoint: mean survival time, dose: 12.5 mg/kg/injection, schedule: Q01DX009 (ip), vehicle: saline with Tween-80) 96 % of control; under setting [4], 96 % of control; under setting [5], 88 % of control and 94 % of control; under setting [1], 93 % of control.
On to `Cc1ccc(C)c(C(=O)CCCCl)c1`, for which the T/C is, setting by setting: under setting [4], 105 % of control; (endpoint: mean survival time, dose: 25.0 mg/kg/injection, schedule: Q04DX003 (ip), vehicle: saline with Tween-80) 93 % of control; under setting [5], 97 % of control; (endpoint: mean survival time, dose: 50.0 mg/kg/injection, schedule: Q04DX003 (ip), vehicle: saline with Tween-80) 96 % of control; under setting [1], 100 % of control; (endpoint: mean survival time, dose: 100.0 mg/kg/injection, schedule: Q04DX003 (ip), vehicle: saline with Tween-80) 96 % of control.
For the compound `O=C(NCCCl)Nc1cccc(Cl)c1`, the T/C was 87 % of control under setting [9]; 102 % of control under setting [10]; 90 % of control (endpoint: mean survival time, dose: 400.0 mg/kg/injection, schedule: Q01DX001 (ip), vehicle: saline with Tween-80).
Consider `CN1CCCN(C)C1`, for which the T/C (endpoint: mean survival time, dose: 75.0 mg/kg/injection, schedule: Q01DX001 (ip), vehicle: saline) was 97 % of control; the T/C (endpoint: mean survival time, dose: 150.0 mg/kg/injection, schedule: Q01DX001 (ip), vehicle: saline) is 97 % of control; the T/C (endpoint: mean survival time, dose: 300.0 mg/kg/injection, schedule: Q01DX001 (ip), vehicle: saline) was 102 % of control.
For `OC1CCCC/C1=C/C=C/c1ccccc1` (centres undefined), the T/C is 92 % of control and 91 % of control under setting [1]; 94 % of control and 92 % of control under setting [2]; 93 % of control under setting [3].
With `Cc1c(C(=O)O)nc(/C=C/C(Cl)(Cl)Cl)[nH]c1=O`, the T/C is, setting by setting: (endpoint: mean survival time, dose: 25.0 mg/kg/injection, schedule: Q01DX005 (ip), vehicle: other) 104 % of control; (endpoint: mean survival time, dose: 50.0 mg/kg/injection, schedule: Q01DX005 (ip), vehicle: other) 103 % of control; (endpoint: mean survival time, dose: 100.0 mg/kg/injection, schedule: Q01DX005 (ip), vehicle: other) 97 % of control; (endpoint: mean survival time, dose: 200.0 mg/kg/injection, schedule: Q01DX005 (ip), vehicle: other) 106 % of control; (endpoint: mean survival time, dose: 400.0 mg/kg/injection, schedule: Q01DX005 (ip), vehicle: other) 95 % of control.
Turning to `O=[As](O)(O)CC(Br)CBr` (centres undefined), the T/C by setting is: under setting [1], 100 % of control; under setting [2], 94 % of control.
For `Cc1c(CNc2ccc(C(=O)NC(CC(=O)O)CC(=O)O)cc2)ccc2nc(N)nc(N)c12`, the T/C reads like this: (endpoint: mean survival time, dose: 0.25 mg/kg/injection, schedule: Q01DX009 (ip), vehicle: saline) 171 % of control; (endpoint: mean survival time, dose: 0.5 mg/kg/injection, schedule: Q01DX009 (ip), vehicle: saline) 118 % of control; (endpoint: mean survival time, dose: 1.0 mg/kg/injection, schedule: Q01DX009 (ip), vehicle: saline) 104 % of control.
For `OC(CI)C(O)C(O)C(O)CI` (centres undefined) (tested in a mixture with another compound), the T/C was 96 % of control (endpoint: mean survival time, dose: 50.0 mg/kg/injection, schedule: Q01DX001 (ip), vehicle: saline with Tween-80); 100 % of control under setting [9]; 96 % of control under setting [10].
In the case of `ClCCCN1CCN(CCCCl)CC1`, the T/C by setting is: (endpoint: mean survival time, dose: 6.25 mg/kg/injection, schedule: Q01DX009 (ip), vehicle: distilled water + alcohol) 96 % of control; (endpoint: mean survival time, dose: 12.5 mg/kg/injection, schedule: Q01DX009 (ip), vehicle: distilled water + alcohol) 95 % of control; (endpoint: mean survival time, dose: 25.0 mg/kg/injection, schedule: Q01DX009 (ip), vehicle: distilled water + alcohol) 102 % of control; (endpoint: mean survival time, dose: 50.0 mg/kg/injection, schedule: Q01DX009 (ip), vehicle: distilled water + alcohol) 103 % of control; (endpoint: mean survival time, dose: 100.0 mg/kg/injection, schedule: Q01DX009 (ip), vehicle: distilled water + alcohol) 108 % of control.
In the case of `Cc1nnc2ncccn12`, the T/C (endpoint: mean survival time, dose: 12.5 mg/kg/injection, schedule: Q01DX009 (ip), vehicle: saline) was 96 % of control and 102 % of control; the T/C (endpoint: mean survival time, dose: 25.0 mg/kg/injection, schedule: Q01DX009 (ip), vehicle: saline) was 96 % of control and 97 % of control; the T/C (endpoint: mean survival time, dose: 50.0 mg/kg/injection, schedule: Q01DX009 (ip), vehicle: saline) is 92 % of control and 96 % of control; the T/C (endpoint: mean survival time, dose: 100.0 mg/kg/injection, schedule: Q01DX009 (ip), vehicle: saline) was 95 % of control and 97 % of control; the T/C (endpoint: mean survival time, dose: 200.0 mg/kg/injection, schedule: Q01DX009 (ip), vehicle: saline) is 90 % of control and 96 % of control.
